Results: patent publication US20060183773A1, “Uses of methylphenidate derivatives” (priority 2005, published 2006)
Like-named read-outs stand apart in the source and are kept apart here.

Tests used:
Assay type in all cases: cell-based, human
IkB-β = assay: Custom AntibodyArray, TRiPS cells: IkB-β; details: 15 μg/ml, 30 minutes
Procedure: (§1) Day 18 TRiPS cells, 1×10^6, were incubated for 30 minutes at 37° C., either with nothing added (“Nil”), with 1 μl CD3/CD28 Dynabeads (Dynal, Oslo, Norway) (“CD3/CD28 beads”) per 100,000 cells, or with CD3/CD28 beads and 15 μg/ml of the compound of formula II (Cpd II). After the incubation, the cells were lysed in Cell-Lytic Mammalian Cell Extraction Reagent (Sigma). After centrifugation to pellet cellular debris, the supernatants (cell extracts) were obtained.
(§2) The cell extracts (supernatants) were then analyzed using a Custom AntibodyArray™ manufactured by Hypromatrix Inc., Worcester, Mass., following the manufacturer's instructions. The Custom AntibodyArray™ is a nylon membrane blotted with antibodies to the proteins listed below. Briefly, the cell extracts were incubated with duplicate Custom AntibodyArray™'s for 2 hours at room temperature with slow shaking, followed by three washes with Tris buffer (150 mM NaCl, 25 mM Tris, 0.05% Tween-20, pH 7.5). HRP-labeled antibodies specific for phosphorylated-tyrosine, phosphorylated-serine and phosphorylated-threonine in Tris buffer were added, and the arrays incubated for 2 hours. After three more washes with Tris buffer, a peroxidase-reactive luminescent substrate was added. The arrays were visualized by exposure to X-ray film. Densitometry of the X-ray films was measured by scanning and computer analysis.

RAP2 = assay: Custom AntibodyArray, TRiPS cells: RAP2; details: 15 μg/ml, 30 minutes
Procedure: as §1, §2

14-3-3 = assay: Custom AntibodyArray, TRiPS cells: 14-3-3; details: 15 μg/ml, 30 minutes
Procedure: as §1, §2

[1] = system: peripheral blood lymphocytes (PBL); assay: Cell clumping of PHA-stimulated PBL (microscopy); details: PBL of donor GR283; 5 μg/ml PHA; compound 5, 15, 50 μg/ml; 24 h pre-incubation + 72 h
Procedure: Whole blood was drawn from GR283, a human volunteer with known allergies, into a glass vacutainer tube containing no anticoagulant. This blood was allowed to clot, and the serum was removed by centrifugation and then heat inactivated by placing it in a water bath at 56° C. for 30 minutes. Whole blood from GR283 was also drawn into a glass vacutainer tube containing heparin and used for peripheral blood lymphocytes (PBL) isolation as follows. Whole blood was layered over room temperature Histopaque 1077 solution and centrifuged at 2000 rpm for 15 minutes at room temperature. Cells at the plasma-Histopaque interface were then removed and washed with culture medium (IMDM medium with 10% heat-inactivated GR283 serum plus 1% penicillin/streptomycin) at 37° C.
The compound of formula II (see above) and methylphenidate (both obtained from Dr. Jeffrey D. Winkler, University of Pennsylvania, Philadelphia, Pa.) in culture medium were added to wells of a 96-well plate to give final concentrations of 5 μg/ml, 15 μg/ml and 50 μg/ml of the compound of formula II and of methylphenidate. […] Then, GR283's PBL in culture medium were added to the wells to give a final concentration of 150,000 cells per well, and the plates were incubated at 37° C., 5% CO2 for 24 hours. […]

IL-8 [2] = assay: IL-8 release from LPS-stimulated THP-1 monocytes, ELISA; details: for inhibition at 15 µg/mL: Homo sapiens, read-out: % Inhibition (IL-8)
Procedure: THP-1 is a monocyte cell line obtained from American Type Culture Collection (ATCC) (catalog no. TIB-202). […] After 1 hour, lipopolysaccharide (LPS) (obtained from Sigma) was added to the cultures to give a final concentration of 200 ng/ml, and the cells were then incubated for an additional 4 hours or for an additional 24 hours. After the incubation, the cells were centrifuged, and the supernatants were collected. The concentrations of IL-8 and TNFα in the supernatants were determined by ELISA.
The concentrations of IL-8 in the supernatants were determined by ELISA performed as described in Example 4.

RAP1 = assay: Custom AntibodyArray, TRiPS cells: RAP1; details: 15 μg/ml, 30 minutes
Procedure: as §1, §2

NFκB = assay: Activated NFκB in TNFα- or VEGF-treated HIAECs, TransAM assay
Procedure: Then, the amount of NFκB was determined using a TransAM™ NFκB p65/NFκB p50 Transcription Factor Assay Kit and a Nuclear Extract Kit from Active Motif North America, Carlsbad, Calif., according to the manufacturer's instructions. Briefly, a nuclear extract of the cells was prepared using the Nuclear Extract Kit. Then, the nuclear extract was added to the wells of the 96-well plate of the TransAM™ kit. Oligonucleotide containing an NFκB consensus binding site was immobilized in the wells, and the activated NFκB contained in the nuclear extract was bound to the oligonucleotide. Then, an antibody directed against the NFκB p65 or p50 subunit was added, and the NFκB complex bound to the oligonucleotide was detected. A secondary antibody conjugated to horseradish peroxidase (HRP) was next added to provide a colorimetric readout that was quantified by spectrophotometry (measurement at 450 nm).
Passage 8 (human iliac artery endothelial cells (HIAECs) (obtained from ATCC; catalog no. CC-2545) were grown to confluence in 25 cm^2 flasks in EGM-2 medium. Eighteen hours prior to the experiment, the medium was replaced with EGM-2 medium containing 0.1% FCS plus heparin, GA1000 (gentamycin) and bovine pituitary extract (all from Cambrex) to place the cells in a resting state. To perform the experiment the medium was aspirated from the flasks, and the following additives were added to the flasks in fresh medium (total volume of 5 ml/flask): 15 μg/ml of the compound of formula II (Cpd II) or 10 μM LY 294002. The flasks were incubated 2 hours at 37° C., 5% CO2 After this incubation, VEGF or TNFα was added to give a final concentration 10 ng/ml, and the flasks were incubated for an additional 30 minutes. Then, the amount of NFκB was determined using a TransAM™ NFκB p65/NFκB p50 Transcription Factor Assay Kit and a Nuclear Extract Kit from Active Motif North America, Carlsbad, Calif., as described in Example 9.

MEKK1 = assay: Custom AntibodyArray, TRiPS cells: MEKK1; details: 15 μg/ml, 30 minutes
Procedure: as §1, §2

IL-8 [3] = assay: IL-8 release by TNFα-stimulated HUVECs, ELISA; details: HUVECs lot 8710, no TNFα, no additives 207.15

SMILES: COC(=O)C(c1ccc(-c2ccccc2)cc1)C1CCCCN1 (stereo not drawn) [Cpd II]
- Effect of Cpd II on the protein in CD3/CD28 stimulated TRiPS cells (IkB-β): Decreased level back to basal levels (Nil control)
- Effect of Cpd II on the protein in CD3/CD28 stimulated TRiPS cells (RAP2): Activated
- Effect of Cpd II on the protein in CD3/CD28 stimulated TRiPS cells (14-3-3): Slightly decreased the level
- cell clumping induced by PHA [1]: reduced the amount of cell clumping induced by 5 μg/ml PHA in a dose-dependent manner
- inhibition at 15 µg/mL (IL-8 [2]; THP-1, 4 h): 23%
- inhibition at 15 µg/mL (IL-8 [2]; THP-1, 24 h): 33%
- Mean IL-8 Concentration (IL-8 [2]; THP-1, LPS 200 ng/ml, 4 hours, Cpd II 15 μg/ml, Dex 10 μM, LPS alone 2844.60): 2185.00 ± 78.30 pg/mL
- Mean IL-8 Concentration (IL-8 [2]; THP-1, LPS 200 ng/ml, 24 hours, Cpd II 15 μg/ml, Dex 10 μM, LPS alone 6653.20): 4490.20 ± 264.46 pg/mL
- release of IL-8 from LPS-stimulated monocytes (in words) (IL-8 [2]; THP-1, LPS 200 ng/ml, Cpd II 15 μg/ml, Dex 10 μM): significantly inhibited the release of IL-8
- Effect of Cpd II on the protein in CD3/CD28 stimulated TRiPS cells (RAP1): Activated
- Mean OD 450 nm (NFκB) (NFκB; TNFα 10 ng/ml + 15 μg/ml, control 0.174, TNFα only 0.881): 0.302 ± 0.003
- Mean OD 450 nm (NFκB) (NFκB; VEGF 10 ng/ml + 15 μg/ml, control 0.174, VEGF only 0.220): 0.066 + 0.005
- Effect of Cpd II on the protein in CD3/CD28 stimulated TRiPS cells (MEKK1): Decreased level back to basal levels (Nil control)
- Mean IL-8 (IL-8 [3]; 15 μg/ml): 400.35 pg/mL
- Mean IL-8 (IL-8 [3]; 30 μg/ml): 0 pg/mL
